Test results from the NIST ThermoML archive (doi:10.1016/j.tca.2011.11.009).
Numbers after ± are expanded uncertainties.

Details: Liquid, Vibrating tube method

CCCCn1cc[n+](C)c1.N#C[S-] [1-butyl-3-methylimidazolium thiocyanate]
mass density [kg/m3]
Details | 298.15 K | 308.15 K | 318.15 K | 328.15 K | 338.15 K
100 kPa | 1070.18 ± 0.48 | 1063.9 ± 0.47 | 1058.33 ± 0.47 | 1052.54 ± 0.47 | 1046.94 ± 0.47
200 kPa | 1070.23 ± 0.48 | 1063.94 ± 0.47 | 1058.37 ± 0.47 | 1052.59 ± 0.47 | 1047.03 ± 0.47
300 kPa | 1070.25 ± 0.48 | 1064.03 ± 0.47 | 1058.41 ± 0.47 | 1052.62 ± 0.47 | 1047.05 ± 0.47
400 kPa | 1070.29 ± 0.48 | 1064.09 ± 0.48 | 1058.45 ± 0.47 | 1052.69 ± 0.47 | 1047.1 ± 0.47
500 kPa | 1070.32 ± 0.48 | 1064.13 ± 0.48 | 1058.5 ± 0.47 | 1052.69 ± 0.47 | 1047.14 ± 0.47
600 kPa | 1070.36 ± 0.48 | 1064.18 ± 0.48 | 1058.54 ± 0.47 | 1052.75 ± 0.47 | 1047.17 ± 0.47
800 kPa | 1070.43 ± 0.48 | 1064.29 ± 0.48 | 1058.61 ± 0.47 | 1052.82 ± 0.47 | 1047.27 ± 0.47
1000 kPa | 1070.5 ± 0.48 | 1064.35 ± 0.48 | 1058.68 ± 0.47 | 1052.94 ± 0.47 | 1047.33 ± 0.47
2000 kPa | 1070.88 ± 0.48 | 1064.73 ± 0.48 | 1059.07 ± 0.47 | 1053.31 ± 0.47 | 1047.74 ± 0.47
4000 kPa | 1071.63 ± 0.48 | 1065.48 ± 0.48 | 1059.88 ± 0.48 | 1054.11 ± 0.47 | 1048.56 ± 0.47
6000 kPa | 1072.37 ± 0.49 | 1066.26 ± 0.48 | 1060.63 ± 0.48 | 1054.91 ± 0.48 | 1049.39 ± 0.47
8000 kPa | 1073.11 ± 0.49 | 1067.02 ± 0.49 | 1061.43 ± 0.48 | 1055.68 ± 0.48 | 1050.19 ± 0.48
10000 kPa | 1073.83 ± 0.49 | 1067.77 ± 0.49 | 1062.18 ± 0.49 | 1056.48 ± 0.48 | 1050.99 ± 0.48

CCCC[n+]1ccc(C)cc1.N#C[S-] [1-butyl-4-methylpyridinium thiocyanate]
mass density [kg/m3]
Details | 298.15 K | 308.15 K | 318.15 K | 328.15 K | 338.15 K
100 kPa | 1061.57 ± 0.97 | 1055.36 ± 0.96 | 1049.83 ± 0.95 | 1044.2 ± 0.94 | 1037.12 ± 0.92
200 kPa | 1061.61 ± 0.97 | 1055.39 ± 0.96 | 1049.88 ± 0.95 | 1044.23 ± 0.94 | 1037.15 ± 0.92
300 kPa | 1061.64 ± 0.97 | 1055.43 ± 0.96 | 1049.93 ± 0.95 | 1044.29 ± 0.94 | 1037.18 ± 0.92
400 kPa | 1061.66 ± 0.97 | 1055.48 ± 0.96 | 1049.96 ± 0.95 | 1044.33 ± 0.94 | 1037.18 ± 0.93
500 kPa | 1061.7 ± 0.97 | 1055.53 ± 0.96 | 1050.03 ± 0.95 | 1044.34 ± 0.94 | 1037.24 ± 0.93
600 kPa | 1061.74 ± 0.97 | 1055.59 ± 0.96 | 1050.06 ± 0.95 | 1044.41 ± 0.94 | 1037.29 ± 0.93
800 kPa | 1061.81 ± 0.97 | 1055.69 ± 0.96 | 1050.13 ± 0.95 | 1044.45 ± 0.94 | 1037.35 ± 0.93
1000 kPa | 1061.88 ± 0.97 | 1055.77 ± 0.96 | 1050.2 ± 0.95 | 1044.55 ± 0.94 | 1037.43 ± 0.93
2000 kPa | 1062.24 ± 0.97 | 1056.11 ± 0.96 | 1050.6 ± 0.95 | 1044.93 ± 0.94 | 1037.83 ± 0.93
4000 kPa | 1062.95 ± 0.98 | 1056.86 ± 0.97 | 1051.37 ± 0.96 | 1045.71 ± 0.95 | 1038.61 ± 0.93
6000 kPa | 1063.68 ± 0.98 | 1057.62 ± 0.97 | 1052.12 ± 0.96 | 1046.49 ± 0.95 | 1039.4 ± 0.94
8000 kPa | 1064.4 ± 0.99 | 1058.35 ± 0.98 | 1052.88 ± 0.97 | 1047.26 ± 0.95 | 1040.18 ± 0.94
10000 kPa | 1065.1 ± 1 | 1059.08 ± 0.98 | 1053.61 ± 0.97 | 1048.01 ± 0.96 | 1040.98 ± 0.94

CCn1cc[n+](C)c1.N#C[S-] [1-ethyl-3-methylimidazolium thiocyanate]
mass density [kg/m3]
Details | 298.15 K | 308.15 K | 318.15 K | 328.15 K | 338.15 K
100 kPa | 1116.69 ± 1.1 | 1110.39 ± 1.1 | 1104.8 ± 1.1 | 1098.18 ± 1 | 1092.87 ± 1
200 kPa | 1116.71 ± 1.1 | 1110.42 ± 1.1 | 1104.83 ± 1.1 | 1098.22 ± 1 | 1092.93 ± 1
300 kPa | 1116.72 ± 1.1 | 1110.47 ± 1.1 | 1104.87 ± 1.1 | 1098.27 ± 1 | 1092.97 ± 1
400 kPa | 1116.77 ± 1.1 | 1110.5 ± 1.1 | 1104.91 ± 1.1 | 1098.31 ± 1 | 1093 ± 1
500 kPa | 1116.82 ± 1.1 | 1110.54 ± 1.1 | 1104.97 ± 1.1 | 1098.32 ± 1 | 1093.05 ± 1
600 kPa | 1116.86 ± 1.1 | 1110.59 ± 1.1 | 1105 ± 1.1 | 1098.38 ± 1 | 1093.11 ± 1
800 kPa | 1116.92 ± 1.1 | 1110.68 ± 1.1 | 1105.04 ± 1.1 | 1098.43 ± 1.1 | 1093.18 ± 1
1000 kPa | 1117 ± 1.1 | 1110.74 ± 1.1 | 1105.13 ± 1.1 | 1098.54 ± 1.1 | 1093.24 ± 1
2000 kPa | 1117.35 ± 1.1 | 1111.1 ± 1.1 | 1105.5 ± 1.1 | 1098.87 ± 1.1 | 1093.64 ± 1
4000 kPa | 1118.04 ± 1.1 | 1111.81 ± 1.1 | 1106.24 ± 1.1 | 1099.64 ± 1.1 | 1094.38 ± 1.1
6000 kPa | 1118.74 ± 1.1 | 1112.53 ± 1.1 | 1106.96 ± 1.1 | 1100.38 ± 1.1 | 1095.15 ± 1.1
8000 kPa | 1119.43 ± 1.1 | 1113.24 ± 1.1 | 1107.68 ± 1.1 | 1101.1 ± 1.1 | 1095.91 ± 1.1
10000 kPa | 1120.11 ± 1.1 | 1113.94 ± 1.1 | 1108.39 ± 1.1 | 1101.83 ± 1.1 | 1096.65 ± 1.1
